From patent US8951999B2, “Compounds” (Orexo AB, priority 2009, dated 2015)

target: T1, recombinant human mPGES-1 (Homo sapiens, UniProt O14684); assay: Assay B: mPGES-1 enzyme assay (modified); assay type: biochemical; conditions: biological assay B (all other compounds); PGH2 final conc. 2 μM, HTRF; read-out: mPGES-1 inhibitory effect IC50
T1 sequence (O14684 1-152): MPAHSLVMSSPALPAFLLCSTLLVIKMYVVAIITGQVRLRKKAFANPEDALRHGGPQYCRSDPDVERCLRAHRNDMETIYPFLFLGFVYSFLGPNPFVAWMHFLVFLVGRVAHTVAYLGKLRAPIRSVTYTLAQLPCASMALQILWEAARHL
Description: Assay B: mPGES-1 Enzyme Assay (Modified)
The aim of this assay is to determine the affinity of a test compound for the mPGES-1 enzyme.
47 μl of recombinant human mPGES-1 (˜0.5 μg protein/well) containing microsomal suspension in a buffer containing GSH, (2.5 mmol/L L-Glutathione reduced, dissolved in 0.1 mol/L Phosphat Buffer pH 7.4) is dispensed in a 384-well plate and thereafter 1 μl of the test compound(s) is/are added and incubated for 25 minutes at room temperature. The enzyme reaction is started by the addition of 2 ul PGH2 (final conc. 2 μM) dissolved in water-free Diglyme. After 60 seconds the reaction is terminated by addition of a stop solution containing FeCl2 (10 μL 0.074 mol/l FeCl2). The samples are diluted between 1:25 in PBS (Phosphate Buffered Saline). 10 μl of the diluted samples are transferred to 384-well low volume plate. In order to quantify the amount of PGE2 that has been formed, a homogenous time resolved fluorescent (HTRF) detecting of PGE2 has been performed using a commercially available kit from Cisbio according to the manufactures recommendation. This HTRF-based assay has been described in detail (see: Goedken et al., J Biomol Screen, 2008, 13(7), 619-625). Briefly, the diluted samples are mixed with […] PGE2-d2 conjugate and 5 μl anti-PGE2 cryptate conjugate. After an incubation period of the plates over night, the fluorescence is measured by the use of an appropriate microplate reader.
The fluorescence of Europium cryptate (maxex=307 nm, maxem=620 nm) and d2-PGE2 (maxex=620 nm, maxem=665 nm) are measured.
The extent of the specific HTRF is measured as a ratio of the emission intensity at 665 nm vs. that at 620 nm at an excitation pulse of 320 nm. The quantification plate contains also wells with different concentrations of PGE2 as calibration curve for the calculation of the PGE2 concentrations from the HTRF ratio values.
From all mPGES enzyme assay the background is subtracted and the IC50 is calculated over a nonlinear regression with conventional software.

SMILES	IC50
O=C(Nc1ccc(Br)cc1)c1cc(NC(=O)c2c(F)ccc(CNC(=O)C(F)(F)F)c2Cl)ccc1OCC(F)F [Example 43, N-[4-(2,2-Difluoroethyl)oxy-3-(4-bromophenyl)aminocarbonyl-phenyl]-6-fluor-2-chlor-3-(trifluormethylcarbonylamino)methyl-benzamide]	120 nM
CC(C)(C)C(=O)NCc1ccc(F)c(C(=O)Nc2ccc(OCC(F)F)c(C(=O)Nc3ccc(Br)cc3)c2)c1Cl [Example 44, N-[4-(2,2-Difluoroethyl)oxy-3-(4-bromophenyl)aminocarbonyl-phenyl]-6-fluor-2-chlor-3-(tert-butylcarbonylamino)methyl-benzamide]	15 nM
CC(C)(C)C(=O)NCc1ccc(Cl)c(C(=O)Nc2ccc(OCC(F)F)c(C(=O)Nc3ccc(Br)cc3)c2)c1F [Example 45, N-[4-(2,2-Difluoroethyl)oxy-3-(4-bromophenyl)aminocarbonyl-phenyl]-6-chlor-2-fluor-3-(tert-butylcarbonylamino)methyl-benzamide]	4 nM
CC(C)(C)C(=O)NCc1ccc(Cl)c(C(=O)Nc2ccc(OCC(F)F)c(C(=O)Nc3ccc(F)c(Cl)c3)c2)c1F [Example 46, N-[4-(2,2-Difluoroethyl)oxy-3-(4-fluoro-3-chloro-phenyl)aminocarbonyl-phenyl]-6-chloro-2-fluoro-3-(tert-butylcarbonylamino)methyl-benzamide]	5 nM
CC(C)(C(=O)NCc1ccc(Cl)c(C(=O)Nc2ccc(OCC(F)F)c(C(=O)Nc3ccc(Br)cc3)c2)c1Cl)C(F)(F)F [Example 47, N-[4-(2,2-Difluoroethyl)oxy-3-(4-bromophenyl)aminocarbonyl-phenyl]-2,6-dichloro-3-(2,2,2-trifluoro-1,1-dimethyl-ethyl)carbonylaminomethyl-benzamide]	6 nM
CC(C)(C)C(=O)NCc1ccc(Cl)c(C(=O)Nc2ccc(OCC(F)F)c(C(=O)N[C@H]3CC[C@H](C(F)(F)F)CC3)c2)c1Cl [Example 48, N-[4-(2,2-Difluoroethyl)oxy-3-[trans-(4-trifluoromethylcyclohexyl)amino]carbonylphenyl]-2,6-dichloro-3-(tert-butylcarbonylamino)methyl-benzamide]	6 nM
CC(C)(C)C(=O)NCc1ccc(F)c(C(=O)Nc2ccc(OCC(F)F)c(C(=O)N[C@H]3CC[C@H](C(F)(F)F)CC3)c2)c1F [Example 50]	34 nM
Cc1ccc(CNC(=O)C(C)(C)C)c(Cl)c1C(=O)Nc1ccc(OCC(F)F)c(C(=O)Nc2ccc(Br)cc2)c1 [Example 52, N-[4-(2,2-Difluoroethyl)oxy-3-(4-bromophenyl)aminocarbonyl-phenyl]-2-chloro-6-methyl-3-(tert-butylcarbonylamino)methyl-benzamide]	4 nM

More lines, in order of falling IC50, values ahead:

IC50	SMILES
120 nM	CC(C)(C)C(=O)NCc1ccc(F)c(C(=O)Nc2ccc(F)c(C(=O)Nc3ccc(Br)cc3)c2)c1F [Example 49, N-[4-Fluoro-3-(4-bromophenyl)aminocarbonyl-phenyl]-2,6-difluoro-3-(tert-butylcarbonylamino)methyl-benzamide]
5 nM	Cc1c(CNC(=O)C(C)(C)C)ccc(Cl)c1C(=O)Nc1ccc(OCC(F)F)c(C(=O)Nc2ccc(Br)cc2)c1 [Example 51, N-[4-(2,2-Difluoroethyl)oxy-3-(4-bromophenyl)aminocarbonyl-phenyl]-6-chloro-2-methyl-3-(tert-butylcarbonylamino)methyl-benzamide]
3 nM	CC(C)(C)C(=O)NCc1ccc(C(F)(F)F)c(C(=O)Nc2ccc(OCC(F)F)c(C(=O)Nc3ccc(Br)cc3)c2)c1 [Example 42, N-[4-(2,2-Difluoroethyl)oxy-3-(4-bromophenyl)aminocarbonyl-phenyl]-2-trifluormethyl-5-(tert-butylcarbonylamino)methyl-benzamide]
